According to US20200347043A1, “MODULATORS OF THE INTEGRATED STRESS PATHWAY” (Calico Life Sciences LLC, priority 2019, published 2020):

Each compound was assayed on HEK293T cells carrying the ATF4 luciferase reporter (assay: ATF4-Luc assay (in vitro model of VWMD)). Details: Homo sapiens, HEK-293T, 1 μg/mL tunicamycin, 7 hours, One Glo luminescence.
Assay type: cell-based, human
Description: In order to test exemplary compounds of the invention in a cellular context, a stable VWMD cell line was first constructed. The ATF4 reporter was prepared by fusing the human full-length ATF4 5′-UTR (NCBI Accession No. BC022088.2) in front of the firefly luciferase (FLuc) coding sequence lacking the initiator methionine as described in Sidrauski et al (eLife 2013). The construct was used to produce recombinant retroviruses using standard methods and the resulting viral supernatant was used to transduce HEK293T cells, which were then subsequently selected with puromycin to generate a stable cell line.
HEK293T cells carrying the ATF4 luciferase reporter were plated on polylysine coated 384-well plates (Greiner Bio-one) at 30,000 cells per well. Cells were treated the next day with 1 μg/mL tunicamycin and 200 nM of a compound of Formula (I) for 7 hours. Luminescence was measured using One Glo (Promega) as specified by the manufacturer. Cells were maintained in DMEM with L-glutamine supplemented with 10% heat-inactivated FBS (Gibco) and Antibiotic-Antimycotic solution (Gibco).
Table 4 below summarizes the EC50 data obtained using the ATF4-Luc assay for exemplary compounds of the invention.

Row | SMILES | EC50 [µM]
1 | O=C(N[C@@H]1C[C@@H]2O[C@H]1C[C@H]2c1nnc([C@H]2C[C@@H](OC(F)(F)F)C2)o1)[C@H]1C[C@@H](O)c2cc(Cl)ccc2O1 (mixture of isomers) [Compound 187] | 0.05 to 0.25
2 | O=C(N[C@H]1C[C@@H](OC(F)(F)F)C1)[C@H]1C[C@H]2O[C@@H]1C[C@@H]2NC(=O)[C@H]1C[C@@H](O)c2cc(Cl)ccc2O1 (mixture of isomers) [Compound 219, (2R,4R)-6-chloro-4-hydroxy-N-[(1RS,2SR,4RS,5SR)-5-{[cis-3-(trifluoromethoxy)cyclobutyl]carbamoyl}-7-oxabicyclo[2.2.1]heptan-2-yl]-3,4-dihydro-2H-1-benzopyran-2-carboxamide] | 0.5 to 2
3 | O=C1C[C@H](C(=O)NC23CC(NC(=O)[C@@H]4C[C@@H]4COC(F)(F)F)(C2)C3)Oc2ccc(Cl)cc21 (mixture of isomers) [Compound 296, (2R)-6-chloro-4-oxo-N-[3-({(1RS,2SR)-2-[(trifluoromethoxy)methyl]cyclopropane-1-carbonyl}amino)bicyclo[1.1.1]pentan-1-yl]-3,4-dihydro-2H-1-benzopyran-2-carboxamide] | 0.5 to 2
4 | O=C(NC12CC(NC(=O)[C@@H]3C[C@@H]3COC(F)(F)F)(C1)C2)[C@H]1C[C@@H](O)c2cc(Cl)ccc2O1 (mixture of isomers) [Compound 299, (2R,4R)-6-chloro-4-hydroxy-N-[3-({(1RS,2SR)-2-[(trifluoromethoxy)methyl]cyclopropane-1-carbonyl}amino)bicyclo[1.1.1]pentan-1-yl]-3,4-dihydro-2H-1-benzopyran-2-carboxamide] | 0.5 to 2
5 | O=C(NCc1ccc(C(F)(F)F)cn1)[C@H]1C[C@H]2O[C@@H]1C[C@@H]2NC(=O)[C@H]1C[C@@H](O)c2cc(Cl)ccc2O1 (mixture of isomers) [Compound 313, (2R,4R)-6-chloro-4-hydroxy-N-[(1RS,2SR,4RS,5SR)-5-({[5-(trifluoromethyl)pyridin-2-yl]methyl}carbamoyl)-7-oxabicyclo[2.2.1]heptan-2-yl]-3,4-dihydro-2H-1-benzopyran-2-carboxamide] | 0.25 to 0.5
6 | O=C(COc1ccc(Cl)c(F)c1)NC12CC(C(=O)NC[C@H]3C[C@@H](O)c4cc(Cl)ccc4O3)(C1)C2 (racemic) [Compound 104, 3-[2-(4-chloro-3-fluorophenoxy)acetamido]-N-{[rac-(2R,4R)-6-chloro-4-hydroxy-3,4-dihydro-2H-1-benzopyran-2-yl]methyl}bicyclo[1.1.1]pentane-1-carboxamide] | 0.01 to 0.05
7 | O=C(CO[C@H]1C[C@@H](OC(F)(F)F)C1)NC12CC(NC(=O)[C@H]3C[C@@H](O)c4cc(Cl)ccc4O3)(C1)C2 (racemic) [Compound 114, rac-(2R,4R)-6-chloro-4-hydroxy-N-[3-(2-{[(1s,3s)-3-(trifluoromethoxy)cyclobutyl]oxy}acetamido)bicyclo[1.1.1]pentan-1-yl]-3,4-dihydro-2H-1-benzopyran-2-carboxamide] | < 0.01
8 | O=C(NCc1ccc(C(F)(F)F)cc1)[C@@H]1CC[C@@H](NC(=O)[C@H]2C[C@@H](O)c3cc(Cl)ccc3O2)CO1 (racemic) [Compound 121, (2R,4R)-6-chloro-4-hydroxy-N-[(3R,6S)-6-({[4-(trifluoromethyl)phenyl]methyl}carbamoyl)oxan-3-yl]-3,4-dihydro-2H-1-benzopyran-2-carboxamide and (2S,4S)-6-chloro-4-hydroxy-N-[(3R,6S)-6-({[4-(trifluoromethyl)phenyl]methyl}carbamoyl)oxan-3-yl]-3,4-dihydro-2H-1-benzopyran-2-carboxamide] | 0.01 to 0.05
9 | O=C(N[C@@H]1CC[C@@H](C(=O)N2CC(Oc3ccc(Cl)cc3)C2)OC1)[C@H]1C[C@@H](O)c2cc(Cl)ccc2O1 (racemic) [Compound 122, (2R,4R)-6-chloro-N-(3R,6S)-6-[3-(4-chlorophenoxy)azetidine-1-carbonyl]oxan-3-yl)-4-hydroxy-3,4-dihydro-2H-1-benzopyran-2-carboxamide and (2S,4S)-6-chloro-N-{(3R,6S)-6-[3-(4-chlorophenoxy)azetidine-1-carbonyl]oxan-3-yl}-4-hydroxy-3,4-dihydro-2H-1-benzopyran-2-carboxamide] | 0.01 to 0.05
10 | O=C(NC12CC(C(=O)NCc3ccc(C(F)(F)F)cn3)(C1)C2)[C@H]1C[C@@H](O)c2cc(Cl)ccc2O1 (racemic) [Compound 123, rac-(2R,4R)-6-chloro-4-hydroxy-N-[3-(([5-(trifluoromethyl)pyridin-2-yl]methyl)carbamoyl)bicyclo[1.1.1]pentan-1-yl]-3,4-dihydro-2H-1-benzopyran-2-carboxamide] | 0.05 to 0.25
11 | O=C(N[C@H]1CC[C@H](C(=O)NCc2nc3ccc(Cl)cc3[nH]2)CC1)[C@H]1C[C@@H](O)c2cc(Cl)ccc2O1 (racemic) [Compound 126, rac-(2R,4R)-6-chloro-N-[(1r,4R)-4-{[(6-chloro-1H-benzimidazol-2-yl)methyl]carbamoyl}cyclohexyl]-4-hydroxy-3,4-dihydro-2H-1-benzopyran-2-carboxamide] | 0.01 to 0.05
12 | O=C(NCc1cn2ccc(Cl)cc2n1)[C@@H]1CC[C@@H](NC(=O)[C@@H]2C[C@H](O)c3cc(Cl)ccc3O2)CO1 (racemic) [Compound 131, (2S,4S)-6-chloro-N-[(3R,6S)-6-{[(7-chloroimidazo[1,2-a]pyridin-2-yl)methyl]carbamoyl}oxan-3-yl]-4-hydroxy-3,4-dihydro-2H-1-benzopyran-2-carboxamide and (2R,4R)-6-chloro-N-[(3R,6S)-6-{[(7-chloroimidazo[1,2-a]pyridin-2-yl)methyl]carbamoyl}oxan-3-yl]-4-hydroxy-3,4-dihydro-2H-1-benzopyran-2-carboxamide] | 0.05 to 0.25
13 | O=C(N[C@H]1CC[C@H](N2CCN(c3cnc(C(F)F)cn3)C2=O)CC1)[C@H]1C[C@@H](O)c2cc(Cl)ccc2O1 (racemic) [Compound 136, rac-(2R,4R)-6-chloro-N-[(1r,4R)-4-{3-[5-(difluoromethyl)pyrazin-2-yl]-2-oxoimidazolidin-1-yl}cyclohexyl]-4-hydroxy-3,4-dihydro-2H-1-benzopyran-2-carboxamide] | 0.05 to 0.25
14 | O=C(COc1ccc(Cl)c(F)c1)NC1CC2(C1)CN(C(=O)[C@@H]1C[C@H](O)c3cc(Cl)ccc3O1)C2 (racemic) [Compound 145, 2-(4-chloro-3-fluorophenoxy)-N-{2-[rac-(2R,4R)-6-chloro-4-hydroxy-3,4-dihydro-2H-1-benzopyran-2-carbonyl]-2-azaspiro[3.3]heptan-6-yl}acetamide] | 0.05 to 0.25
15 | O=C(NC12CCC(NC(=O)[C@H]3C[C@@H](OC(F)(F)F)C3)(CC1)[C@@H](O)C2)[C@@H]1C[C@H](O)c2cc(Cl)ccc2O1 (racemic) [Compound 147, (2S,4S)-6-chloro-4-hydroxy-N-[(3S)-3-hydroxy-4-{[(1s,3R)-3-(trifluoromethoxy)cyclobutane-1-carbonyl]amino}bicyclo[2.2.2]octan-1-yl]-3,4-dihydro-2H-1-benzopyran-2-carboxamide and (2R,4R)-6-chloro-4-hydroxy-N-[(3S)-3-hydroxy-4-{[(1s,3R)-3-(trifluoromethoxy)cyclobutane-1-carbonyl]amino}bicyclo[2.2.2]octan-1-yl]-3,4-dihydro-2H-1-benzopyran-2-carboxamide] | 0.25 to 0.5
16 | O=C(NC12CC(n3cnc(-c4ccc(F)c(F)c4)c3)(C1)C2)[C@H]1C[C@@H](O)c2cc(Cl)ccc2O1 (racemic) [Compound 149, rac-(2R,4R)-6-chloro-N-{3-[4-(3,4-difluorophenyl)-1H-imidazo-1-yl]bicyclo[1.1.1]pentan-1-yl}-4-hydroxy-3,4-dihydro-2H-1-benzopyran-2-carboxamide] | < 0.01
17 | O=C(NC12CC(c3nnc([C@H]4C[C@@H](OC(F)(F)F)C4)o3)(C1)C2)[C@H]1C[C@@H](O)c2cc(Cl)ccc2O1 (racemic) [Compound 159, rac-(2R,4R)-6-chloro-4-hydroxy-N-(3-{5-[(1s,3S)-3-(trifluoromethoxy)cyclobutyl]-1,3,4-oxadiazol-2-yl}bicyclo[1.1.1]pentan-1-yl)-3,4-dihydro-2H-1-benzopyran-2-carboxamide] | 0.01 to 0.05
18 | O=C(NC12CCC(c3nnc([C@H]4C[C@@H](OC(F)(F)F)C4)o3)(C1)C2)[C@H]1C[C@@H](O)c2cc(Cl)ccc2O1 (racemic) [Compound 160, rac-(2R,4R)-6-chloro-4-hydroxy-N-(4-{5-[(1s,3S)-3-(trifluoromethoxy)cyclobutyl]-1,3,4-oxadiazol-2-yl}bicyclo[2.1.1]hexan-1-yl)-3,4-dihydro-2H-1-benzopyran-2-carboxamide] | 0.05 to 0.25
19 | O=C(N[C@@H]1CC[C@@H](c2nnc([C@H]3C[C@@H](OC(F)(F)F)C3)o2)OC1)C1CC(O)c2cc(Cl)ccc2O1 (mixture of isomers) [Compound 161, (2RS,4RS)-6-chloro-4-hydroxy-N-[(3R,6)-6-{5-[cis-3-(trifluoromethoxy)cyclobutyl]-1,3,4-oxadiazol-2-yl}oxan-3-yl]-3,4-dihydro-2H-1-benzopyran-2-carboxamide] | < 0.01
20 | O=C(COc1ccc(Cl)c(F)c1)NC12CC(c3nnc([C@H]4C[C@@H](O)c5cc(Cl)ccc5O4)o3)(C1)C2 (racemic) [Compound 166, 2-(4-chloro-3-fluorophenoxy)-N-(3-{5-[rac-(2R,4R)-6-chloro-4-hydroxy-3,4-dihydro-2H-1-benzopyran-2-yl]-1,3,4-oxadiazol-2-yl}bicyclo[1.1.1]pentan-1-yl)acetamide] | < 0.01
